Reference: patent EP1909102A1, “Method for subgroup analysis in subjects having or being suspected of having inflammatory disease, use of anti-p38mapk antibodies, kits and their use” (c-a-i-r biosciences GmbH, priority 2006, dated 2008)

Tests used:
[1] = system: patients with moderate to severe rheumatoid arthritis; settings: VeRA trial, cohort of 315 patients with moderate to severe rheumatoid arthritis; placebo effect about 30 %; cited from earlier work
[2] = system: patients with moderate to severe rheumatoid arthritis; test: VeRA trial of p38MAPK inhibitor in rheumatoid arthritis patients; assay type: in vivo; settings: according to a Monte Carlo simulation of the distribution of the effects
Method: It has been claimed that p38MAPK inhibitors were of benefit in treating a large variety of disorders. […] In the VeRA trial, which was conducted to evaluate treatment effects in terms of characteristic manifestations of the disease such as tender joints, swollen joints, morning stiffness and disease activity in a cohort of 315 patients with moderate to severe rheumatoid arthritis, approximately 40 % of patients were responsive to treatment with the p38MAPK inhibitor VX-702, compared to a placebo effect of about 30 %, arguing for a biochemical net response rate of about 28 % according to a Monte Carlo simulation of the distribution of the effects. So far, no explanation for this evident dichotomy between responders and non-responders has been proposed yet.

p38MAPKα = p38MAPKα (Homo sapiens, UniProt Q16539); settings: read-out: IC50 for p38MAPKα; disclosed in WO 2004/110990; cited from earlier work
Sequence of p38MAPKα (Q16539 whole entry): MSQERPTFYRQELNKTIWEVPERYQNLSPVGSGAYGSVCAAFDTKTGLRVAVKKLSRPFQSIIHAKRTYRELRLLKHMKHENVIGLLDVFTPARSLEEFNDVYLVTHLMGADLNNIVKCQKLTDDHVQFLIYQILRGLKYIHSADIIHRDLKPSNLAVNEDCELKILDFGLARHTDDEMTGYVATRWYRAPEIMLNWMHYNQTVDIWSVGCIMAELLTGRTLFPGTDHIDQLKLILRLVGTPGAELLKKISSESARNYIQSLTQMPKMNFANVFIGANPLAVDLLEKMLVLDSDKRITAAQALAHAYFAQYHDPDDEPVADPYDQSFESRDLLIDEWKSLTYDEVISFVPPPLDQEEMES

Row | SMILES | patients responsive to treatment [1] | biochemical net response rate [2] | IC50 (p38MAPKα) [nM]
1 | NC(=O)c1ccc(N(C(N)=O)c2c(F)cccc2F)nc1-c1ccc(F)cc1F [VX-702] | approximately 40% | about 28% | –
2 | Fc1ccc(-c2nc3occn3c2-c2ccnc(NC3CC3)n2)cc1 [4-(4-fluorophenyl)-5-(2-[cyclopropyl-amino]-pyrimidyl-4-yl)-imidazooxazole] | – | – | 0.44
